Assay results: ChEMBL document CHEMBL1914287, “Synthesis and in vivo evaluation of [18F]N-(2-benzofuranylmethyl)-N'-[4-(2-fluoroethoxy)benzyl]piperazine, a novel σ1 receptor PET imaging agent” (Bioorg Med Chem Lett, 2011); call rule not given here
Values belong to the molecule of their own block, whether it stands above or below them.

Experiments:
[1] = target: T1, Sigma non-opioid intracellular receptor 1 (Homo sapiens, UniProt Q99720); experiment: Binding affinity to sigma 1 receptor by radioligand displacement assay
[2] = Binding affinity to sigma 2 receptor by radioligand displacement assay
[3] = target: Sigma non-opioid intracellular receptor 1 (Cavia porcellus, UniProt Q60492); experiment: Binding affinity to sigma 1 receptor in guinea pig brain membrane; format: cell membranes
[4] = Binding affinity to sigma 2 receptor in guinea pig brain membrane; format: cell membranes, Cavia porcellus
Rhesus monkey [5] = experiment: Inhibition of sigma 1 receptor in conscious monkey brain at 220 to 802 MBq, iv; format: functional, organism-based; conditions: Macaca mulatta
Rhesus monkey [6] = experiment: Inhibition of sigma 2 receptor in conscious monkey brain at 220 to 802 MBq, iv; format: functional, organism-based; conditions: Macaca mulatta
[7] = Drug uptake in cerebellum of baboon brain at 100 MBq, iv measured within 5 mins by microPET imaging; format: ADME, organism-based; conditions: papio hamadryas, in vivo
[8] = Drug uptake in cortex of baboon brain at 100 MBq, iv measured within 5 mins by microPET imaging; format: ADME, organism-based; conditions: papio hamadryas, in vivo
[9] = Drug uptake in right striatum of baboon brain at 100 MBq, iv measured within 5 mins by microPET imaging; format: ADME, organism-based; conditions: papio hamadryas, in vivo
[10] = Drug uptake in left striatum of baboon brain at 100 MBq, iv measured within 5 mins by microPET imaging; format: ADME, organism-based; conditions: papio hamadryas, in vivo
[11] = Drug uptake in thalamus of baboon brain at 100 MBq, iv measured within 5 mins by microPET imaging; format: ADME, organism-based; conditions: papio hamadryas, in vivo
[12] = Drug uptake in cerebellum of baboon brain at 100 MBq, iv measured after 60 mins by microPET imaging; format: ADME, organism-based; conditions: papio hamadryas, in vivo, 1 h
[13] = Drug uptake in cortex of baboon brain at 100 MBq, iv measured after 60 mins by microPET imaging; format: ADME, organism-based; conditions: papio hamadryas, in vivo, 1 h
[14] = Drug uptake in right striatum of baboon brain at 100 MBq, iv measured after 60 mins by microPET imaging; format: ADME, organism-based; conditions: papio hamadryas, in vivo, 1 h
[15] = Drug uptake in left striatum of baboon brain at 100 MBq, iv measured after 60 mins by microPET imaging; format: ADME, organism-based; conditions: papio hamadryas, in vivo, 1 h
[16] = Drug uptake in thalamus of baboon brain at 100 MBq, iv measured after 60 mins by microPET imaging; format: ADME, organism-based; conditions: papio hamadryas, in vivo, 1 h
[17] = Drug uptake in cerebellum of baboon brain at 100 MBq, iv administered 5 mins after haloperidol challenge measured within 3 mins by microPET imaging; format: ADME, organism-based; conditions: papio hamadryas, in vivo
[18] = Drug uptake in cerebellum of baboon brain at 100 MBq, iv administered 5 mins after haloperidol challenge measured within 5 mins by microPET imaging; format: ADME, organism-based; conditions: papio hamadryas, in vivo
[19] = Drug uptake in cerebellum of baboon brain at 100 MBq, iv administered 5 mins after haloperidol challenge measured after 60 mins by microPET imaging; format: ADME, organism-based; conditions: papio hamadryas, in vivo, 1 h
[20] = Drug uptake in cortex of baboon brain at 100 MBq, iv administered 5 mins after haloperidol challenge measured within 3 mins by microPET imaging; format: ADME, organism-based; conditions: papio hamadryas, in vivo
[21] = Drug uptake in cortex of baboon brain at 100 MBq, iv administered 5 mins after haloperidol challenge measured within 5 mins by microPET imaging; format: ADME, organism-based; conditions: papio hamadryas, in vivo
[22] = Drug uptake in cortex of baboon brain at 100 MBq, iv administered 5 mins after haloperidol challenge measured after 60 mins by microPET imaging; format: ADME, organism-based; conditions: papio hamadryas, in vivo, 1 h
[23] = Drug uptake in right striatum of baboon brain at 100 MBq, iv administered 5 mins after haloperidol challenge measured within 3 mins by microPET imaging; format: ADME, organism-based; conditions: papio hamadryas, in vivo
[24] = Drug uptake in right striatum of baboon brain at 100 MBq, iv administered 5 mins after haloperidol challenge measured within 5 mins by microPET imaging; format: ADME, organism-based; conditions: papio hamadryas, in vivo
[25] = Drug uptake in right striatum of baboon brain at 100 MBq, iv administered 5 mins after haloperidol challenge measured after 60 mins by microPET imaging; format: ADME, organism-based; conditions: papio hamadryas, in vivo, 1 h
[26] = Drug uptake in left striatum of baboon brain at 100 MBq, iv administered 5 mins after haloperidol challenge measured within 3 mins by microPET imaging; format: ADME, organism-based; conditions: papio hamadryas, in vivo
[27] = Drug uptake in left striatum of baboon brain at 100 MBq, iv administered 5 mins after haloperidol challenge measured within 5 mins by microPET imaging; format: ADME, organism-based; conditions: papio hamadryas, in vivo
[28] = Drug uptake in left striatum of baboon brain at 100 MBq, iv administered 5 mins after haloperidol challenge measured after 60 mins by microPET imaging; format: ADME, organism-based; conditions: papio hamadryas, in vivo, 1 h
[29] = Drug uptake in thalamus of baboon brain at 100 MBq, iv administered 5 mins after haloperidol challenge measured within 3 mins by microPET imaging; format: ADME, organism-based; conditions: papio hamadryas, in vivo
[30] = Drug uptake in thalamus of baboon brain at 100 MBq, iv administered 5 mins after haloperidol challenge measured within 5 mins by microPET imaging; format: ADME, organism-based; conditions: papio hamadryas, in vivo
[31] = Drug uptake in thalamus of baboon brain at 100 MBq, iv administered 5 mins after haloperidol challenge measured after 60 mins by microPET imaging; format: ADME, organism-based; conditions: papio hamadryas, in vivo, 1 h
[32] = target: T1, Sigma non-opioid intracellular receptor 1; experiment: Binding affinity to sigma 1 receptor
[33] = Binding affinity to sigma 2 receptor

T1 sequence (Q99720 whole entry): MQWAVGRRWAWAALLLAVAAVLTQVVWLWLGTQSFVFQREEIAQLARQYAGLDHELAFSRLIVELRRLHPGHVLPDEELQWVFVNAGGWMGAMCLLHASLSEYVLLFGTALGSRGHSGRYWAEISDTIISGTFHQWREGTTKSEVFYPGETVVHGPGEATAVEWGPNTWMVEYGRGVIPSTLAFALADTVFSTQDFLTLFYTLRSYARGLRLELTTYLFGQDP
Chain of Sigma non-opioid intracellular receptor 1 (Cavia porcellus, UniProt Q60492) (Q60492 whole entry): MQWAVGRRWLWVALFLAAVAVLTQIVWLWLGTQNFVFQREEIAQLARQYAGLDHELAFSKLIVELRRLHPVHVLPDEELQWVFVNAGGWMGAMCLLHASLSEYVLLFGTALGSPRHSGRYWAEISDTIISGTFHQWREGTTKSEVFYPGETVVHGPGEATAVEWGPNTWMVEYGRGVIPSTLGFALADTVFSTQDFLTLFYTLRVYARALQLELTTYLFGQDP

Ki [3]: 3.39 nM
Ki [4]: 406 nM
SMILES: O=C(NC1CCN(Cc2ccccc2)CC1)c1ccccc1F

IC50 (Rhesus monkey [5]): 3.1 nM
IC50 (Rhesus monkey [6]): 6.8 nM
SMILES: COc1cc(CCN2CCN(CCCc3ccc(F)cc3)CC2)ccc1OCCF

The remaining lines, values behind:

SMILES: FCCC1OC2(CCN(Cc3ccccc3)CC2)c2ccccc21 (stereo not drawn)
Ki [1]: 0.59 nM
Ki [2]: 785 nM

SMILES: [18F]CCOc1ccc(CN2CCN(Cc3cc4ccccc4o3)CC2)cc1
Drug uptake [7]: Active
Drug uptake [8]: Active
Drug uptake [9]: Active
Drug uptake [10]: Active
Drug uptake [11]: Active
Drug uptake [12]: Active
Drug uptake [13]: Active
Drug uptake [14]: Active
Drug uptake [15]: Active
Drug uptake [16]: Active
Drug uptake [17]: Active
Drug uptake [18]: Not Active
Drug uptake [19]: Not Active
Drug uptake [20]: Active
Drug uptake [21]: Not Active
Drug uptake [22]: Not Active
Drug uptake [23]: Active
Drug uptake [24]: Not Active
Drug uptake [25]: Not Active
Drug uptake [26]: Active
Drug uptake [27]: Not Active
Drug uptake [28]: Not Active
Drug uptake [29]: Active
Drug uptake [30]: Not Active
Drug uptake [31]: Not Active

SMILES: N#Cc1ccc(OCC2CCN(CCCF)CC2)cc1
Ki [32]: 4.3 nM
Ki [33]: 144 nM
